Holding throughout (assay type): cell-based, human
One experiment concerns MV3 cells. In words: Caspase activity assay (CellEvent Caspase-3/7) in MV3 cells. The following applies: detached MV3 cells, 4 h, 10 μg/mL WGA. On the procedure: Detached/Adhered Cell Culture. […] Drug treatments, solvent-only controls, or CellEvent caspase activity sensor were added to suspensions if appropriate to the experiment, and then immediately transferred to both an uncoated (for detached cells) and ibiTreated (for adhered cells) 8-well ibidi u-slide (ibidi cat #80821 and 80826) at 200 μl/well. Both slides were stored at 37° C. and 5% CO2 for either 24 hours (hrs) for viability assays, 3 hrs for ERK activity assays or 4 hours for caspase activation assays. Uncoated slides (detached) were nutated at 20 rpm during this time. […]
Viability, ERK Activity, and Caspase ActivityCell Counting Assays. Viability, ERK activity, and caspase activity assays were analyzed using live-cell fluorescent and phase-contrast microscopy, performed on a Nikon Ti microscope equipped with an environmental chamber held at 37° C. and 5% CO2 at 20× magnification. […] Live and dead cells (as identified by significant cellular ethidium signal) were counted using the Cell Counter ImageJ plugin. For ERK activity assays, live cells carrying ERK-nKTR-GFP and H2B-mCherry were imaged after 3 hours of experimental conditions and high/low ERK activity cells were counted with Cell Counter ImageJ plugin. […] Caspase positive and negative cells (as identified by significant cellular CellEvent signal) were counted using the Cell Counter ImageJ plugin.

For the next experiment, the system named is PI3K. In words: PI3K activity with Akt-PH-GFP biosensor in MV3 cells. The conditions noted are these: rounded, poorly-adhered MV3 cells. On the procedure:
Cells Embedded in 3D Collagen.
Cells Grown in VitroGel Coffins. VitroGel coffins were prepared by embedding MV3 or A375 cells in VitroGel 3D or RGD at 1:1 dilution according to manufacturer's instructions (TheWell Biosciences, sku #TWG001). […] A 1:1 solution of VitroGel and VitroGel Dilution Solution was made and added to cell suspension at a ratio of 4:1 (VitroGel: cells) using gentle pipetting until well-mixed (with care taken not to form bubbles). Cell/VitroGel solution was transferred to an 8-well uncoated ibidi μ-slide (ibidi cat #80821) at 100 μl/well, spread over the bottom of wells with a pipette tip, and allowed to polymerize at room temperature for 15 minutes. […]
Cortical septin levels were quantified by measuring the mean cytoplasmic intensity of each cell using hand-drawn ROIs that excluded nuclei (performed with the FIJI ImageJ package), and then calculating for each cell its fraction of cortical voxels (intracellular voxels within 0.96 μm of the u-Shape3D-derived surface) that were higher than that cell's mean cytoplasmic intensity (performed using a MATLAB script). […] To quantify PI3K biosensor fluorescence signal, cells were segmented with u-shape3D and the intracellular signal was summed across the z-axis to yield a sum projection image (performed with the FIJI ImageJ package). […]

In the next experiment the test system is NRAS. In words: NRAS-GFP enrichment at the cortex of MV3 cells. The following applies: voxels within 0.96 μm of surface. On the procedure: 3D Cell Image Analysis. Cell morphology and septin localization were analyzed principally via u-shape3D similar to the protocol described in Driscoll et al. Nature Methods. 16, 1037-1044 (2019), the disclosure of which is incorporated herein in its entirety. Briefly, 3D images were first deconvolved using either a Richardson-Lucy or Wiener algorithm with an experimentally measured point spread function. Cells were next segmented from the image background using u-shape3D's ‘twoLevel’ mode, which combines a straightforward Otsu threshold of the image to detect the outer cell surface with a blurred version of the image to segment the inside of the cell. The volume segmented from the blurred image was morphologically eroded to ensure the fidelity of the overall segmentation. Cell surfaces were then represented as triangle meshes, and the mean surface curvature at every triangle was calculated according to methods described in Driscoll et al. Nature Methods. 16, 1037-1044 (2019) and Elliott et al., Nat. […] Septin and NRAS localization was measured from fluorescence images by extending a sphere of either 1 μm (for septins) or 2 μm (for NRAS) about each mesh triangle and mapping to the triangle the average intensity both within that sphere and the cell. Image intensity was not depth normalized prior to analysis, but was instead measured from the raw, undeconvolved image. […]

With wheat germ agglutinin [WGA], the caspase activation entry in the experiment with MV3 cells was “consistent and specific increase of caspase activation”. Take `O=C(Nc1ccccc1)Nc1ccnc(Cl)c1` [FCF, forchlorfenuron]: the PI3K activity result in the experiment on PI3K is “PI3K activity fell significantly”. Moreover, the “enrichment of NRAS near the cell surface” value in the experiment with NRAS is “significantly reduced enrichment of NRAS near the cell surface”.

The record behind these values is patent publication US20250268980A1, “AN ANTICANCER THERAPY TARGETING RAS AND OTHER ONCOGENIC SIGNALS BY INHIBITION OF DYNAMIC BLEBBING AND/OR SEPTINS” (THE BOARD OF REGENTS OF THE UNIVERSITY OF TEXAS SYSTEM, priority 2022, published 2025).
